Results from patent US11344510B2, “Arylcyclohexylamine derivatives and their use in the treatment of psychiatric disorders” (Gilgamesh Pharmaceuticals, Inc., priority 2019, dated 2022).
Counter-ions that a name gives are not always drawn. Like-named read-outs stand apart in the source and are kept apart here.

Experiments:
[1] = Exposure after intraperitoneal administration in mice; assay type: in vivo; conditions: CD-1 mice; for Cmax and AUC compared to ketamine at 10 mg/kg: plasma and brain; for AUC(0-inf) / Cmax: male, mouse
Protocol: (§1) Animals. Male CD-1 mice were used in these studies Animals were randomly assigned to treatment groups and were fasted for 4 h before dosing.
Drugs. Test compounds (HCl salts) were dissolved in de-ionized water and administered intraperitoneally (ip) at the indicated doses (calculated based on freebase) and at a volume of 5 mL/kg body weight. Compounds were tested as the racemates (indicated by “rac” nomenclature) or pure enantiomers (indicated by “R” or “S” nomenclature), as indicated.
Pharmacokinetics. Blood samples were collected under 2,2,2-tribromoethanol anesthesia (150 mg/kg, ip) from the orbital sinus at 0.083, 0.25, 0.5, 1, and 2 h (ketamine, 4 animals per time point) or 0.083, 0.25, 0.5, 1, 2, 4, and 8 h (14R and 14S, 4 animals per time point) into microcontainers containing K2EDTA Immediately after collection of blood, mice were euthanized by cervical dislocation and brain samples were collected at the same time points. All samples were immediately processed, flash-frozen, and stored at −70° C. until subsequent analysis. Plasma samples were separated by centrifugation of whole blood and aliquots (50 μL) were mixed with 200 μL, of internal standard solution (400 ng/mL in 1:1 v/v CH3CN:MeOH). After mixing by pipetting and centrifuging for 4 min at 6000 rpm, 0.5 μL of each supernatant was analyzed for drug using a fit-for-purpose liquid chromatography-tandem mass spectrometry (LC-MS/MS) method, with authentic samples of each analyte used for calibration and identification. Brain samples (weight 200 mg±1 mg) were dispersed in 800 μL of internal standard solution (400 ng/mL in 4:1 v/v MeOH:water) using zirconium oxide beads (115 mg±5 mg) in The Bullet Blender® homogenizer for 30 s at speed 8. After homogenization, the samples were centrifuged for 4 min at 14,000 rpm and 0.5 μL of each supernatant was analyzed for drug using a fit-for-purpose LC-MS/MS method, with authentic samples of each analyte used for calibration and identification.
(§2) Data Analysis. The drug concentrations of samples below the lower limit of quantitation (LLOQ) were designated as zero. Pharmacokinetic data analysis was performed using noncompartmental, bolus injection or extravascular input analysis models in WinNonlin 5.2 (PharSight). Data points below LLOQ were presented as missing to improve validity of t112 calculations.

[2] = Oral bioavailability in mice, Method A; assay type: in vivo; conditions: CD-1 mice; for F: 10 mg/kg; for half-life / Cmax / AUC(0-inf): male, mouse
Protocol: as §1
Drugs. Test compounds were dissolved in normal saline (ketamine) or de-ionized water (other compounds) and administered intravenously (iv) or orally (po) at a dose of 10 mg/kg (calculated based on freebase) and at a volume of 5 mL/kg body weight. Compounds were tested as the racemates (indicated by “rac” nomenclature) or pure enantiomers (indicated by “R” or “S” nomenclature).
Sample Collection and Bioanalysis. Blood samples were collected under 2,2,2-tribromoethanol anesthesia (150 mg/kg, ip) from the orbital sinus at 0.083, 0.25, 0.5, 1, 2, 4, 8 and 24 h (4 animals per time point) into microcontainers containing K2EDTA Immediately after collection of blood, mice were euthanized by cervical dislocation and brain samples were collected at the same time points. All samples were immediately processed, flash-frozen, and stored at −70° C. until subsequent analysis. Plasma samples were separated by centrifugation of whole blood and aliquots (50 μL) were mixed with 200 μL of internal standard solution (400 ng/mL in 1:1 v/v CH3CN:MeOH). After mixing by pipetting and centrifuging for 4 min at 6000 rpm, 0.5 μL of each supernatant was analyzed for drug using a fit-for-purpose liquid chromatography-tandem mass spectrometry (LC-MS/MS) method, with authentic samples of each analyte used for calibration and identification. Brain samples (weight 100 mg±1 mg) were dispersed in 500 μL, of internal standard solution (400 ng/mL in 4:1 v/v MeOH:water) using zirconium oxide beads (115 mg±5 mg) in The Bullet Blender® homogenizer for 30 s at speed 8. After homogenization, the samples were centrifuged for 4 min at 14,000 rpm and 0.5 μL of each supernatant was analyzed for drug using a fit-for-purpose LC-MS/MS method, with authentic samples of each analyte used for calibration and identification.
as §2

NET = target: T1, NET (Homo sapiens, UniProt P23975); experiment: NET radioligand binding with [3H]nisoxetine
T1 construct: expressed in transfected cells; host or cells: HEK293
T1 sequence (P23975 whole entry, species assumed): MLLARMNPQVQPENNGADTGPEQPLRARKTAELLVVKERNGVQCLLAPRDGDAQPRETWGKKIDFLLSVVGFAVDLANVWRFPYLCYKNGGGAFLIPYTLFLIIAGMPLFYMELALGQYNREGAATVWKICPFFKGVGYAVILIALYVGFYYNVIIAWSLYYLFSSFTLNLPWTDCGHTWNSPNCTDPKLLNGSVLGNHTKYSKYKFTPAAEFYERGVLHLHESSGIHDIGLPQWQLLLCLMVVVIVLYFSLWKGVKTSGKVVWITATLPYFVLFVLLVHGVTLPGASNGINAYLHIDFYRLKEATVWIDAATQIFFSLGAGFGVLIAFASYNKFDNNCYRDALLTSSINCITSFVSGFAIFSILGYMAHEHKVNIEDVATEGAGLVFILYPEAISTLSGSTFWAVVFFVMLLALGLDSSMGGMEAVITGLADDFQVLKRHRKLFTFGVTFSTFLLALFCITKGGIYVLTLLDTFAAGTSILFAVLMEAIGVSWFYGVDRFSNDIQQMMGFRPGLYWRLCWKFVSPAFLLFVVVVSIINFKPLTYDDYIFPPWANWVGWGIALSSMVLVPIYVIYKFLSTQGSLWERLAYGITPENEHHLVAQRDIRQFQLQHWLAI
Protocol: Radioligand Binding. Affinity of the test compounds for SERT, NET, and DAT was determined in radioligand binding experiments with [^3H]imipramine, [^3]nisoxetine, and [^3H]WIN35,428, respectively, by WuXi AppTec (Hong Kong) Limited, under the conditions described in Table 15.

[3] = MLM stability (Low Activity); assay type: in vitro ADME, CD-1 mice; conditions: male, CD-1, mouse, liver microsomes, pH 7.4, Condition 1 (Low Activity), 0.50 mg protein/mL
Procedure, shortened: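 Pooled male CD-1 mouse liver microsomes (0.50 mg/mL) with 1 μM compound and 1 mM NADPH in 100 mM PBS pH 7.4 with 1 mM MgCl2, 37 °C, six time points over 60 min. Parent remaining by LC-MS/MS; kel, t1/2 and Clint from linear regression of ln(AUC) versus time.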

[4] = calculated based on brain exposure
[5] = brain, 10 mg/kg iv, read-out: t1/2 (iv)
[6] = brain, 10 mg/kg po, read-out: t1/2 (po)
[7] = plasma, 10 mg/kg iv, read-out: AUC0-inf (iv) (converted)
[8] = plasma, 10 mg/kg iv, read-out: t1/2 (iv)
[9] = plasma, 10 mg/kg po, read-out: AUC0-inf (po) (converted)
[10] = plasma, 10 mg/kg po, read-out: t1/2 (po)
[11] = plasma, absolute oral bioavailability

CN[C@@]1(c2ccccc2)CCCCC1=O [Compound 14R, (R)-2-(methylamino)-2-phenylcyclohexan-1-one]
Cmax and AUC compared to ketamine at 10 mg/kg ([1]; 3.16 mg/kg ip): comparable to, or higher than
AUC(0-inf) ([1]; brain, 3.16 mg/kg ip): 2530 ng·h/mL
Cmax ([1]; brain, 3.16 mg/kg ip): 3320 ng/mL
AUC(0-inf) ([1]; plasma, 3.16 mg/kg ip): 703 ng·h/mL
Cmax ([1]; plasma, 3.16 mg/kg ip): 1010 ng/mL
exposure (AUC) to 14R relative to 14S ([1]; same dose, 3.16 mg/kg ip): roughly 2 fold
AUC0-inf (iv) ([2]; brain, 10 mg/kg iv): 548,000 ng*min/g
AUC0-inf (po) ([2]; brain, 10 mg/kg po): 192,000 ng*min/g
F [2, 4]: 35%
half-life [2, 5]: 11.9 h
Cmax ([2]; brain, 10 mg/kg po): 3640 ng/g
half-life [2, 6]: 0.735 h
AUC(0-inf) [2, 7]: 3520 ng·h/mL
half-life [2, 8]: 1.18 h
Cmax ([2]; plasma, 10 mg/kg po): 1700 ng/mL
AUC(0-inf) [2, 9]: 1410 ng·h/mL
half-life [2, 10]: 0.922 h
F [2, 11]: 40%

O=C1CCCC[C@]1(c1ccccc1)N1CCC1 [Compound 84R, (R)-2-(azetidin-1-yl)-2-phenyl-cyclohexan-1-one]
Ki (NET): 77.8 µM

CNC1(c2ccccc2)CCCCC1=O (racemic) [Compound 14rac, 2-(methylamino)-2-phenylcyclohexan-1-one hydrochloride]
AUC0-inf (iv) ([2]; brain, 10 mg/kg iv): 457,000 ng*min/g
AUC0-inf (po) ([2]; brain, 10 mg/kg po): 192,000 ng*min/g
F [2, 4]: 42%
half-life [2, 5]: 0.468 h
Cmax ([2]; brain, 10 mg/kg po): 3150 ng/g
half-life [2, 6]: 0.657 h
AUC(0-inf) [2, 7]: 1930 ng·h/mL
half-life [2, 8]: 0.562 h
Cmax ([2]; plasma, 10 mg/kg po): 930 ng/mL
AUC(0-inf) [2, 9]: 920 ng·h/mL
half-life [2, 10]: 0.705 h
F [2, 11]: 48%

O=C1CCCC[C@@]1(c1ccccc1)N1CCC1 [Compound 84S, (S)-2-(azetidin-1-yl)-2-phenyl-cyclohexan-1-one]
Ki (NET): 53.8 µM

N[C@@]1(c2ccccc2)CCCCC1=O [Compound 11R, (R)-2-amino-2-phenyl-cyclohexan-1-one]
half-life at 1 μM [3]: > 2.42 h
microsomal CLint at 1 μM [3]: < 9.6 µL/min/mg

Cc1ccccc1[C@]1(N)CCCCC1=O [Compound 114R, (R)-2-amino-2-(o-tolyl)cyclohexan-1-one]
half-life at 1 μM [3]: 0.728 h
microsomal CLint at 1 μM [3]: 31.7 µL/min/mg

CN[C@]1(c2ccccc2)CCCCC1=O [Compound 14S, (S)-2-(methylamino)-2-phenylcyclohexan-1-one]
Cmax and AUC compared to ketamine at 10 mg/kg ([1]; 3.16 mg/kg ip): comparable to, or higher than
AUC(0-inf) ([1]; brain, 3.16 mg/kg ip): 1220 ng·h/mL
Cmax ([1]; brain, 3.16 mg/kg ip): 3370 ng/mL
AUC(0-inf) ([1]; plasma, 3.16 mg/kg ip): 385 ng·h/mL
Cmax ([1]; plasma, 3.16 mg/kg ip): 875 ng/mL
AUC0-inf (iv) ([2]; brain, 10 mg/kg iv): 507,000 ng*min/g
AUC0-inf (po) ([2]; brain, 10 mg/kg po): 166,000 ng*min/g
F [2, 4]: 33%
half-life [2, 5]: 2.12 h
Cmax ([2]; brain, 10 mg/kg po): 3480 ng/g
half-life [2, 6]: 1.73 h
AUC(0-inf) [2, 7]: 2180 ng·h/mL
half-life [2, 8]: 2.37 h
Cmax ([2]; plasma, 10 mg/kg po): 951 ng/mL
AUC(0-inf) [2, 9]: 993 ng·h/mL
half-life [2, 10]: 2.93 h
F [2, 11]: 45.5%

Cc1ccccc1[C@@]1(N)CCCCC1=O [Compound 114S, (S)-2-amino-2-(o-tolyl)cyclohexan-1-one]
half-life at 1 μM [3]: 1.35 h
microsomal CLint at 1 μM [3]: 17.1 µL/min/mg

CNC1(c2ccccc2Cl)CCCCC1=O (racemic) [rac-ketamine, racemic ketamine, reference compound]
AUC(0-inf) ([1]; brain, 10 mg/kg ip): 725 ng·h/mL
Cmax ([1]; brain, 10 mg/kg ip): 2250 ng/mL
AUC(0-inf) ([1]; plasma, 10 mg/kg ip): 382 ng·h/mL
Cmax ([1]; plasma, 10 mg/kg ip): 822 ng/mL
AUC0-inf (iv) ([2]; brain, 10 mg/kg iv): 97,000 ng*min/g
AUC0-inf (po) ([2]; brain, 10 mg/kg po): 6,030 ng*min/g
F [2, 4]: 6.2%
F [2, 11]: 15%

O=C1CCCCC1(c1ccccc1)N1CCCC1 (racemic) [Compound 27rac, 2-phenyl-2-(pyrrolidin-1-yl)cyclohexan-1-one]
Ki (NET): 11.5 µM

N[C@]1(c2ccccc2)CCCCC1=O [Compound 11S, (S)-2-amino-2-phenyl-cyclohexan-1-one]
half-life at 1 μM [3]: > 2.42 h
microsomal CLint at 1 μM [3]: < 9.6 µL/min/mg
